Laboratory results from the Kinase Knowledgebase extract (Sharma et al. 2016).

target: PIK3CG (human) (UniProt P48736); test: Inhibition of PIK3CG Kinase Activity
Sequence (P48736 whole entry, looked up): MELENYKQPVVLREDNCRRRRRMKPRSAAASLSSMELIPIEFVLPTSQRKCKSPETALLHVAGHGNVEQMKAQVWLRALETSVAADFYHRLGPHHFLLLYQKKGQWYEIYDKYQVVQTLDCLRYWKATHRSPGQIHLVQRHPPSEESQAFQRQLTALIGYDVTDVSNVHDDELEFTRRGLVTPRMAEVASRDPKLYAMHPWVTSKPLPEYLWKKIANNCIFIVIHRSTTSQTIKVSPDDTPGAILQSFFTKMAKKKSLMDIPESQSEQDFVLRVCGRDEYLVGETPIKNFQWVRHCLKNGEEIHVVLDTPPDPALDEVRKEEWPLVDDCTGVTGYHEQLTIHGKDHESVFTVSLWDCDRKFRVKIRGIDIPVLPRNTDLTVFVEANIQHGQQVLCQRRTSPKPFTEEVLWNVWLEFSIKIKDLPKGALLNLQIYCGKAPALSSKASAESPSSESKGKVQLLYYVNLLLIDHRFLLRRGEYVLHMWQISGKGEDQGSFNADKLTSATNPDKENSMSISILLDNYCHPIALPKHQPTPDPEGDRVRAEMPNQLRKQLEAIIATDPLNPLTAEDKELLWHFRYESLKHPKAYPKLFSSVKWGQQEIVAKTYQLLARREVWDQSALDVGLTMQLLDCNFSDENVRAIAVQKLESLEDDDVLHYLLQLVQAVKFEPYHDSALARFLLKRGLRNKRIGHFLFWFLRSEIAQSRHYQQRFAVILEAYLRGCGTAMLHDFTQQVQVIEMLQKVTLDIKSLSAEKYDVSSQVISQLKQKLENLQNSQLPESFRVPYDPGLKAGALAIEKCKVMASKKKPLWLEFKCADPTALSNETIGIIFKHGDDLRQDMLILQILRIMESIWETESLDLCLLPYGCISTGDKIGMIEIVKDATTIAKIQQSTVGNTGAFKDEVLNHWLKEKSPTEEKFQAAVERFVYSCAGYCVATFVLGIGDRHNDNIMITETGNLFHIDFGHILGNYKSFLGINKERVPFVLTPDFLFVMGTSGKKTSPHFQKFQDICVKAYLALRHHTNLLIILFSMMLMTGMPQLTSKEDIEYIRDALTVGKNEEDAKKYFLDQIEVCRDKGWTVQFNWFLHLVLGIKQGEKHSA

Row | SMILES | Ki
1 | Cc1cc(-c2cncc(OC(F)F)c2)nc2c1C(=O)N(c1ccnc(OCC(F)F)c1)C2C (stereo not drawn) | < 100 nM
2 | COc1cc(-c2ccc3c(n2)C(Cc2ccccc2)N(c2cnn(CC(F)(F)F)c2)C3=O)cnc1OC (stereo not drawn) | < 100 nM
3 | Cc1cc(-c2cncc(OCC(F)(F)F)c2)cc2c1C(=O)N(c1cnn(CC(F)(F)F)c1)C2C (stereo not drawn) | < 100 nM
4 | COc1cc(-c2ccc3c(n2)[C@H](C)N(c2cc[nH]n2)C3=O)cnc1OC | < 100 nM
5 | Cc1cc(-c2cnc(N)c(OC(F)F)c2)nc2c1C(=O)N(c1cnn(CC(F)(F)F)c1)C2 | < 100 nM
6 | CCn1cc(N2Cc3cc(-c4cnc(OC)nc4OC)ccc3C2=O)cn1 | 100 to 490 nM
7 | COc1cncc(-c2cc(C)c3c(n2)C(C)N(c2ccn(CC(C)(C)F)n2)C3=O)c1 (stereo not drawn) | < 100 nM
8 | COc1ncc(-c2cc(C)c3c(n2)C(C)(C)N(c2cnn(C(C)(C)C#N)c2)C3=O)cc1OCC(F)F | < 100 nM
9 | CCn1cc(N2Cc3cc(-c4cnc5ccccc5c4)ccc3C2=O)cn1 | 100 to 490 nM
10 | Cc1cc(-c2cncc(C(=O)NCC(F)F)c2)nc2c1C(=O)N(c1cnn(CC(F)(F)F)c1)C2(C)C | < 100 nM
11 | Cc1cncc(-c2cc(C)c3c(n2)CN(c2cnn(CC#N)c2)C3=O)c1 | < 100 nM
12 | COc1cncc(-c2cc(C)c3c(n2)C2(CN(C(C)=O)C2)N(c2cnn(CC(F)(F)F)c2)C3=O)c1 | < 100 nM
13 | Cc1cc(-c2cncc(OCC(F)F)c2)nc2c1C(=O)N(c1cc[nH]n1)C2C (stereo not drawn) | 100 to 490 nM
14 | COc1cc(-c2ccc3c(n2)CN(c2ccc(OCC#N)nc2)C3=O)cnc1OC | 100 to 490 nM
15 | CCOc1cncc(-c2cc(C)c3c(n2)C(C)(C)N(c2cnn(COCCOC)c2)C3=O)c1 | 100 to 490 nM
16 | COc1cc(-c2ccc3c(n2)CN(c2ccnc(CC#N)c2)C3=O)cnc1OC | < 100 nM
17 | CCn1ccc(N2C(=O)c3c(C)cc(-c4cncc(OC)c4)nc3[C@H]2C)n1 | < 100 nM
18 | COc1cc(-c2cc(C)c3c(n2)CN(c2cccc(C(C)(C)C#N)n2)C3=O)cnc1OC | < 100 nM
19 | COc1ncc(-c2ccc3c(n2)[C@H](C)N(c2cnn(CC(F)(F)F)c2)C3=O)cc1O | < 100 nM
20 | COc1cc(-c2cc(C)c3c(n2)CN(c2cnn(CC(F)(F)F)c2)C3=O)ccn1 | < 100 nM
21 | COc1ncc(-c2cc(C)c3c(n2)CN(c2cnn(CC#N)c2)C3=O)c(OC)n1 | < 100 nM
22 | COc1cc(-c2ccc3c(n2)C(OC)N(c2cnn(CC(F)(F)F)c2)C3=O)cnc1OC (stereo not drawn) | < 100 nM
23 | COc1cc(-c2cc(C)c3c(n2)C(C)N(c2cnn(CC(F)(F)F)c2)C3=O)cnc1C (stereo not drawn) | < 100 nM
24 | COc1cc(-c2cc(C)c3c(n2)[C@H](OC)N(c2cnn(CC(F)(F)F)c2)C3=O)cnc1OC | < 100 nM

Row | SMILES | Ki
25 | Cc1cc(-c2cc(O)cs2)nc2c1C(=O)N(c1cnn(CC(F)(F)F)c1)C2 | < 100 nM
26 | COc1cc(-c2ccc3c(c2)CN(c2cncc(CC#N)c2)C3=O)cnc1OC | < 100 nM
27 | CCOC1c2nc(-c3cnc(OC)c(OC)c3)cc(C)c2C(=O)N1c1cnn(CC(F)(F)F)c1 (stereo not drawn) | < 100 nM
28 | CCOc1cc(-c2cc(C)c3c(c2)CN(c2cnn(CC(F)(F)F)c2)C3=O)cnc1OCC | < 100 nM
29 | COc1cc(-c2ccc3c(n2)CN(c2ccc(N4CCC(N(C)C)C4)nc2)C3=O)cnc1OC (stereo not drawn) | < 100 nM
30 | COc1cc(-c2ccc3c(n2)CN(c2cnn(CCO)c2)C3=O)cnc1OC | < 100 nM
31 | COc1cc(N2Cc3nc(-c4cnc(OC)c(OC)c4)cc(C)c3C2=O)cnc1CO | < 100 nM
32 | CON=Cc1cncc(-c2cc(C)c3c(n2)C(C)(C)N(c2cnn(CC(F)(F)F)c2)C3=O)c1 | < 100 nM
33 | COc1cc(-c2ccc3c(c2)CN(c2cncc(C#N)c2)C3=O)cnc1OC | 100 to 490 nM
34 | COc1cncc(-c2cc(C)c3c(n2)CN(c2cnn(C[C@H](C)F)c2)C3=O)c1 | < 100 nM
35 | COc1cc(-c2ccc3c(n2)[C@H](C)N(c2cnn(CC(C)(C)O)c2)C3=O)cnc1OC | < 100 nM
36 | COc1cc(-c2cc(C)c3c(n2)C(C)(C)N(c2cnn(C[C@H](C)O)c2)C3=O)cnc1OC | < 100 nM
37 | CCn1ccc(N2Cc3nc(-c4cnc(OC)c(OCC(F)(F)F)c4)cc(C)c3C2=O)n1 | < 100 nM
38 | COc1ncc(-c2ccc3c(c2)CN(c2cnn(CC#N)c2)C3=O)c(OC)n1 | < 100 nM
39 | COc1cc(-c2ccc3c(n2)C(C)N(c2cnn(C[C@@H](C)O)c2)C3=O)cnc1OC (stereo partly drawn) | 100 to 490 nM
40 | Cc1cc(-c2ccc(N)nc2)nc2c1C(=O)N(c1cnn(CC(F)(F)F)c1)C2 | < 100 nM
41 | CCN(C)C(=O)COc1ccc(N2Cc3nc(-c4cnc(OC)c(OC)c4)ccc3C2=O)cn1 | 100 to 490 nM
42 | Cc1cc(-c2cnc3ccccc3c2)nc2c1C(=O)N(c1cnn(CC(F)(F)F)c1)C2 | < 100 nM
43 | COc1cc(-c2ccc3c(n2)CN(c2cnn(Cc4cccnc4)c2)C3=O)cnc1OC | < 100 nM
44 | COc1cc(-c2cc(C)c3c(n2)C(C(C)C)N(c2cnn(CC(F)(F)F)c2)C3=O)cnc1OC (stereo not drawn) | < 100 nM
45 | CCn1ccc(N2C(=O)c3c(C)cc(-c4cncc(OCC(F)F)c4)nc3C2C)n1 (stereo not drawn) | < 100 nM
46 | COc1cc(-c2cc(C)c3c(n2)CN(c2ccnc(C)c2)C3=O)cnc1OC | < 100 nM
47 | Cc1cc(-c2cnc(C)c(O)c2)nc2c1C(=O)N(c1cnn(CC(F)(F)F)c1)C2(C)C | < 100 nM
48 | CCOc1cncc(-c2cc(C)c3c(n2)[C@@H](OC)N(c2cnn(CC(F)(F)F)c2)C3=O)c1 | < 100 nM
